Reference: patent US20030152910A1, “Method for identification and quantification of kinase inhibitors” (priority 1999, published 2003)
Values joined by “and” are separate entries in the source; they are usually repeats but may differ in a detail not shown here. Equal entries are not always repeated. Where two headings read alike, the source gives them in different places.

Assays:
[1] = tested on: Non-transfected 293 cells devoid of UL97 kinase activity; test: Growth inhibition of non-transfected 293 cells by GCV (FIG. 11B); type: cell-based, human
[2] = tested on: UL97-transfected 293 cells (293UL); test: Growth inhibition of 293UL cells by GCV (FIG. 11A); type: cell-based, human; details: for IC50: grown 90 h in presence of GCV
Method: 293 cells transfected with pUL97 expression construct (pcDNA3-UL97; see above under 2.1.) were grown for 14 d in presence of geneticin (750 μg/ml). Individual clones were isolated (minimal dilution), re-tested for geneticin resistance and for sensitivity to 100 μM GCV. Clones identified as geneticin resistant and GCV-sensitive were expanded and stored frozen in aliquots for further experiments, after having verified by Western blot their capacity to express UL97 protein.
293UL cells were routinely grown in DMEM supplemented with 10% FCS, glutamine (1%), pyruvate (1%), geneticin (final 0.5 mg G418/ml culture), and penicillin/streptomycin (1%). Medium was changed every 3-4 d, and cells were subcultured before reaching confluency by trypsin/EDTA treatment (exposure of adherent cells to 5 mg/ml trypsin and 2 mg/ml EDTA, dissolved in sterile 0.85% NaCl) and re-seeding in at least 5-fold dilution. Cells were maximally 10 times subcultured before a new frozen batch was used.
For routine antiproliferative assays, 293 UL cells were suspended at 13.8×10^3 cells/ml in complete medium, and 145 μl/well (2000 cells) of this suspension were seeded in 96-well flat-bottom plates (Nunclon #167008). After attachment of the cells for 24 h, drugs were added: All wells received 5 μl GCV (4 mM in complete medium, final concentration 100 μM), and each 3 wells received 50 μl compound (40 μM in complete medium+0.4% DMSO). A control series received 50 μl 40 μM compound only in the absence of GCV. Another control plate, which had received cells or medium only, was glutaraldehyde-fixed or frozen (see below) at the time of drug addition and stained for quantitation of cell density.
Cells were further incubated for 72 h and then analyzed for proliferation (staining with methylene blue or fluorescent dyes, see section 2.4).
A) UL97-transfected 293 cells 1,2,3,4: individual IC50 profiles (averages of triplicates); cells grown for 90 h in presence of GCV.

[3] = molecular target: T1, human cytomegalovirus UL97 protein kinase (Human cytomegalovirus, UniProt P16788); test: UL97 in-cell-activity assay (transfected 293 cells + GCV; colour conversion / LDH read-out); type: cell-based
T1 construct: expressed in transfected cells
Method: Human embryonic kidney cells 293 (ATCC CRL-1573), as cultivated with DMEM medium containing 5% fetal calf serum (FCS), were harvested by trypsinization, rinsed with PBS and seeded in 96-well plates at a cell number of 20,000 per well.
Transfection (Lipofectamin Plus reagents, GibcoBRL) was performed at a cell layer confluency of 50-75%. For this, identical transfection conditions were chosen for 24 wells of the 96-well plate to obtain determinations over a 8-well line in triplicate. One transfection set-up for 24 wells was composed as follows:
Meanwhile, culture media of the 96-well plates were removed by the use of a multichannel pipette and a 50-μl volume of fresh DMEM-0% FCS was given in each well. Then, 25 μl of each transfection set-up was added per well. Plates were incubated for 5 h at 37° C. in a 5% CO2 atmosphere. Subsequent to this incubation, a 125-μl volume of DMEM-10% FCS was added per well and incubated over night at 37° C. in a 5% CO2 atmosphere.
Transfection media were removed from the cells by the use of a multichannel pipette. […]
Visual and photometric determinations of the colour conversion of the phenol red-supplemented culture medium was performed by the use of a computer scanner and an ELISA reader (OD 560 nm).
Measurement of the lactate dehydrogenase (LDH) acitivity in the residual cell layer was performed with the CytoTox 96 Non-Radioactive Cytotoxicity (Promega). […] Thereafter, 50 μl of stop buffer was added and the colour reaction was quantitated by the use of an ELISA reader (OD 490 nm). […]
Five days after addition of the substances, the read-out of signals was performed by the photometric quantification of the colour conversion of the culture medium and, for comparison, by the measurement of LDH activity in the residual cell layers. Qualitative/semi-quantitative illustrations are given by computer scanning figures in (a) for colour conversion, and in (b) for LDH activity. Quantitative values are presented as the results of photometric determinations in (c) for colour conversion, and in (d) for LDH activity. […]

[4] = tested on: 293 cells transfected with wild-type or mutant pUL97 (K355M catalytically inactive); type: cell-based, human; details: 5 nM to 500 nM inhibitor, GCV 5-40 μM, wild-type and mutant pUL97, LDH 5 d posttransfection
Source text: If a test compound is capable of inhibiting the kinase, but additionally has a cytotoxic activity, no rescue from cell death would be observed. Thus, the method of the invention preferably comprises the additional step (e) distinguishing between (i) noncytotoxic test compounds having kinase inhibiting properties and (ii) test compounds having kinase inhibiting properties but additional cytotoxic side effects. Furthermore, the effect of a given test compound may be determined at several different concentrations of the test compound in order to obtain a more accurate information of the kinase inhibiting properties and possible unwanted cytotoxic side effects. […] In this manner, the concentration dependency and the target specificity of the inhibitory effect of the test compound and the concentration dependency of a possible cytotoxic effect may be determined together.
Substrate (e.g. ganciclovir) is then added in an appropriate concentration to transfected cells (as indicated in the diagram). […] As a measurement for cell death, either the colour conversion of the medium (containing phenol red as a pH indicator) can the quantified photometrically, or the LDH activity within the residual cell layer can be determined (resulting in low activities when extensive cell death has occurred). Other methods of quantification are also possible (e.g. measurement of cell proliferation). […]

Nc1nc(O)c2ncn(COC(CO)CO)c2n1 [GCV, ganciclovir]
IC50 ([1]; Homo sapiens, HEK293, non-transfected 293 cells): 3700 µM
effect on proliferation of wild-type 293 cells ([1]; up to 100 μM GCV): not affected
reduction of cell growth ([2]; 100 μM GCV, 3 d, methylene blue): 50%
IC50 ([2]; Homo sapiens, HEK293, 90 h, average ± s.d. of 4 profiles, read-out: IC50 growth inhibition, average): 26 ± 11 µM
IC50 ([2]; read-out: individual IC50 profiles (averages of triplicates)): 41 µM and 19 µM and 17 µM

Cn1c2ccccc2c2c3c(c4c5ccccc5n(CCC#N)c4c21)CNC3=O [GÖ6976]
specific inhibition of UL97 activity ([3]; 5 nM and 50 nM inhibitor, GCV 2.5 and 5 μM, pl18neo-UL97, LDH activity after 5 days): stronger at the 50-nM than at the 5-nM concentration
identification as UL97-specific inhibitor ([3]; 50 nM inhibitor, GCV 1.25-160 μM, 5 days, colour conversion and LDH activity): identified as UL97-specific inhibitors
inhibition of UL97 activity at the highest concentration (decrease in LDH activity indicates cytotoxicity) ([3]; 500 nM inhibitor, GCV 2.5 and 5 μM, LDH activity after 5 days): markedly decreased

CN[C@@H]1C[C@H]2O[C@@](C)([C@@H]1OC)n1c3ccccc3c3c4c(c5c6ccccc6n2c5c31)C(=O)NC4 [STP, staurosporine]
inherent (nonspecific) cytotoxicity versus specific pUL97 inhibition [4]: nonspecific cytotoxicity
